Results published in patent US6635662B2, “Radicicol derivatives” (Kyowa Hakko Kogyo Co., Ltd., priority 1996, dated 2003).

Assays:
[1] = test system: rat normal fibroblast cell line 3Y1-B; test: Growth inhibition test (MTT) on 3Y1-B; assay type: cell-based; conditions: 3Y1-B cells, 72 hours
Description: (§1) The cells were inoculated into a 96 well microplate (# 167008, manufactured by Nunc) in an amount of 1,000 cells per well and pre-cultured at 37° C. for 24 hours in a 5% carbon dioxide gas incubator using Dulbacco's modified Eagle's medium (DMEM) which had been supplemented with 10% fetal calf serum (FCS). Next, a DMSO solution of each test compound which had been adjusted to 10 mM was serially diluted with the culturing medium and add to the wells in 50 μl portions. Thereafter, the culturing was continued at 37° C. for 72 hours in the 5% carbon dioxide gas incubator. Five hours before completion of the culturing, 3-(4,5-dimethylthiazo-2-yl)-2,5-diphenyltetrazolium bromide (manufactured by Sigma, hereinafter referred to as “MTT”) which had been dissolved in the culturing medium to a final concentration of […] was dispensed into the wells in 50 μl portions. After completion of the culturing, DMSO was dispensed into the wells in […] portions, and the plate was vigorously stirred using a plate mixer to dissolve MTT-formazan crystals completely. Thereafter, absorbance at 550 nm was measured using a microplate reader MTP-32 (manufactured by Corona Denki). The cell growth inhibition activity was expressed by 50% inhibition concentration (IC50).

[2] = test system: v-src oncogene transformed cell line SR-3Y1; test: Growth inhibition test (MTT) on SR-3Y1; assay type: cell-based; conditions: Rattus norvegicus, SR3Y1, SR-3Y1 cells, 72 hours
Description: as §1

[3] = test system: intracellular tyrosine kinase; test: Inhibition test of intracellular tyrosine kinase (tyrosine-phosphorylated protein, Western blot); assay type: cell-based; conditions: Rattus norvegicus, SR3Y1; SR-3Y1 cells, 15 hours culture, tyrosine-phosphorylated protein reduced to half vs control; read-out: Inhibitory activity of intracellular tyrosine kinase IC50
Description: SR-3Y1 cells were cultured at 37° C. for 15 hours in an atmosphere of 5% carbon dioxide, using Dulbecco's modified Eagle's medium (DMEM) containing 10% fetal calf serum (FCS), to which each radicicol derivative to be tested had been added in varied concentration. The thus cultured cells were lysed at 4° C. for 20 minutes in a cooled buffer for lysis use (50 mM Tris HCl, pH 7.5, 150 mM sodium chloride (NaCl), 1% Triton X-100, 0.1% sodium dodecyl sulfate (SDS), 1% sodium deoxycholate, 2 mM ethylenediaminetetraacetic acid (EDTA), 1 mM phenylmethanesulfonyl fluoride (PMSF), 20 μM leupeptin, 0.15 unit/ml aprotinin, 1 mM sodium orthovanadate (Na3VO4) and then centrifuged at 20,000 G for 30 minutes. After measuring protein concentration in the resulting supernatant fluid, samples were adjusted to the same protein quantity per lane to carry out separation of protein by SDS-PAGE. […] Detection was carried out using ECL reagent (Amersham Co.), and the amount of tyrosine-phosphorylated protein was determined by scanning the density of bands prepared on an X-ray film. […]

[4] = test system: human breast cancer MX-1 solid tumor; test: Antitumor test on nude mouse-transplanted human breast cancer MX-1 solid tumor; assay type: in vivo; conditions: tumor volume ratio, 100 mg/kg per day i.v. once a day for 5 days, measured day 12 after administration
Description: From a tumor lump of a human breast cancer cell line MX-1 subcultured in nude mice (BALB/c nu/nu mice: CLEA Japan), a portion showing good growth was selected and cut into a 2 mm square fragment which was then transplanted under the abdominal side skin of each male nude mouse of 7 to 9 weeks of age using a trocar. The tumor size was measured on the 13th day after the tumor transplantation to select properly growing tumors having a tumor volume of 100 to 300 mm^3 (calculated by a calculation formula of “major axis×minor axis^2×½”), the mice were optionally grouped into 5 animals per group, and then each test compound which had been dissolved in a 7.5% cremohor EL (manufactured by Sigma)/5% dimethylacetamide (DMA)/87.5% physiological saline solution was administered to the mice by intravenous injection at a dosage of 0.05 ml (100 mg/kg) per day, once a day for 5 days. The antitumor activity of each test compound was expressed by a ratio (T/C) of the tumor volume (T) in the test drug-administered group to the tumor volume (C) in the control group on the 12th or 14th day after administration of the test compound.

Raf-1 protein = test: Effect of decreasing intracellular Raf-1 protein quantity in KNRK 5.2 cells; assay type: cell-based, rat; conditions: 40 hours, Raf-1 protein/total Erk2 protein ratio halved, read-out: Raf-1 protein quantity decrease: IC50
Description: (§2) Activated K-Ras gene-introduced rat kidney epithelial cell line KNRK 5.2 was cultured at 37° C. for 40 hours in an atmosphere of 5% carbon dioxide gas using Dulbecco's modified Eagle's medium (DMEM) which was supplemented with 10% fetal calf serum (FCS) and to which was added each radicicol derivative at respective test concentration. The resulting cells were lysed for 30 minutes at 4° C. in a cooled buffer for lysis use [50 mM HEPES NaOH, pH 7.4, 250 mM sodium chloride (NaCl), 1 mM ethylenediaminetetraacetic acid (EDTA), 1% Nonidet P-40 (NP40), 1 mM dithiothreitol (DTT), 1 mM phenylmethylsulfonyl fluoride (PMSF), 5 μg/ml leupeptin, 2 mM sodium orthovanadate (Na3VO4), 1 mM sodium fluoride (NaF), 10 mM β-glycerophosphate] and then centrifuged at 30,000 G for 10 minutes. The protein content of the thus prepared supernatant fluids was measured to prepare samples having the same protein quantity for each lane, and then separation of proteins was carried out by SDS-PAGE. The thus separated protein samples were transferred on a polyvinylidene difluoride (PVDF) membrane, and then anti-phosphorylation MAPK antibody (anti-phospho MAPK, manufactured by New England Biolabs), anti-Erk2 antibody (anti-Erk2, manufactured by Upstate Biotechnology) and anti-Raf-1 antibody (anti-Raf-1 (C-12), manufactured by Santa Cruz Biotechnology) were added thereto as primary antibodies and allowed to react with the proteins on the membrane. Thereafter, a horseradish peroxidase-labeled secondary antibody (anti-rabbit Ig antibody or anti-mouse Ig antibody, manufactured by Amersham) capable of reacting with respective primary antibodies was added thereto as the secondary antibody to carry out the reaction. Detection was carried out using ECL reagent (manufactured by Amersham), and the amount of phosphorylated Erk2 protein, total Erk2 protein and Raf-1 protein was determined by carrying out density scanning of the bands generated on the X-ray film. The Erk2 phosphorylation inhibition activity of radicicol derivatives is determined by calculating the ratio of phosphorylated Erk2 protein (phosphorylated Erk2 protein/total Erk2 protein) based on the results prepared from the samples of respective drug concentrations, which is expressed as the concentration of each derivative (IC50) by which the ratio becomes half in comparison with the case in which the drug is not added.

Erk2 phosphorylation = Erk2 phosphorylation inhibition activity in KNRK 5.2 cells; assay type: cell-based; conditions: Rattus norvegicus, 40 hours, phosphorylated Erk2/total Erk2 ratio halved
Description: as §2

IC50 [3] [nM]	IC50 (Raf-1 protein) [nM]	IC50 (Erk2 phosphorylation) [nM]	Structure (SMILES)	IC50 [1] [nM]	IC50 [2] [nM]	T/C (%) [4] [%]
			CNC(=O)ON=C1/C=C/C=C\C2OC2CC(C)OC(=O)c2c(O)cc(O)c(Cl)c2C1 (stereo not shown) [Compound 74]	72	27	
130			CCOC(=O)ON=C1/C=C/C=C\C2OC2CC(C)OC(=O)c2c(O)cc(O)c(Cl)c2C1 (stereo not shown) [Compound 73]			
	380	70	CC1CC2OC2C=CC=CC(=NOCc2cccnc2)Cc2c(Cl)c(O)cc(O)c2C(=O)O1 (stereo not shown) [Compound 53]	8	< 4	46
	340	350	CC1CC2OC2C=CC=CC(=NOCc2ccccc2S(=O)(=O)N(C)C)Cc2c(Cl)c(O)cc(O)c2C(=O)O1 (stereo not shown) [Compound 50]	120	21	
	120	60	CC1CC2OC2C=CC=CC(=NOCCN2CCCC2=O)Cc2c(Cl)c(O)cc(O)c2C(=O)O1 (stereo not shown) [Compound 69]	8	4	4
370			C[C@@H]1C[C@H]2O[C@@H]2/C=C\C=C\C(=O)Cc2c(Cl)c(O)cc(O)c2C(=O)O1 [Radicicol, radicicol]	780	42	
	190	110	CC1CC2OC2C=CC=CC(=NOCCCCN2CCOCC2)Cc2c(Cl)c(O)cc(O)c2C(=O)O1 (stereo not shown) [Compound 64]			
